According to ChEMBL document CHEMBL1833860 (Bioorg Med Chem Lett, 2011):
Converted amounts (≈) assume the structure as drawn.

Tests used:
[1] = Dissociation constant, pKa of the compound; assay type: physicochemical
[2] = Oral bioavailability in rat at 3 mg/kg; assay type: ADME, organism-based; settings: in vivo
[3] = Volume of distribution at steady state in rat at 1 mg/kg, iv and 3 mg/kg, po; assay type: ADME, organism-based; settings: in vivo, read-out: Vdss
[4] = Half life in rat at 1 mg/kg, iv and 3 mg/kg, po; assay type: ADME, organism-based; settings: in vivo
[5] = Clearance in rat at 1 mg/kg, iv and 3 mg/kg, po; assay type: ADME, organism-based; settings: in vivo
[6] = Distribution coefficient, log D of compound; assay type: physicochemical; settings: octanol/water
[7] = Aqueous solubility of compound in fed state simulated intestinal fluid at pH 6.5; assay type: physicochemical

With Cc1cccc(Nc2nc(N[C@@H]3CCCC[C@@H]3N)ncc2C(N)=O)c1 the pKa [1] was 9.4.
Work on Cc1cccc(Nc2nc(N[C@@H]3CCOC[C@@H]3N)ncc2C(N)=O)c1 yielded a bioavailability [2] of 14%, a Vd [3] of 4 L/kg and a half-life [4] of 1.9 h. The pKa [1] was 8.1 and the clearance [5] was 32 mL/min/kg.
Compound Cc1cccc(Nc2nc(N[C@@H]3CC(F)(F)CC[C@@H]3N)ncc2C(N)=O)c1 (racemic) has a pKa [1] of 7.9.
Cc1ccc(Nc2nc(N[C@@H]3CCOC[C@@H]3N)ncc2C(N)=O)cc1 gave a logD [6] of 0.9, a solubility [7] of 420 µg/mL (≈ 1230 µM) and a bioavailability [2] of 30%. For the same compound, the Vd [3] was 4.1 L/kg, the half-life [4] was 4.2 h and the clearance [5] was 16 mL/min/kg.
COc1ccc(Nc2nc(N[C@@H]3CCOC[C@@H]3N)ncc2C(N)=O)cc1 showed a bioavailability [2] of 10%, a Vd [3] of 3.9 L/kg and a half-life [4] of 2.3 h. It also gave a clearance [5] of 45 mL/min/kg.
